From US12012374B2, “Agonists of ROR GAMMAt” (BRISTOL-MYERS SQUIBB COMPANY, priority 2019, dated 2024)

Molecular target: T1, human RORgT (Homo sapiens, UniProt P51449)
T1 construct: expressed in transfected cells; host or cells: engineered Jurkat cells (Jurkat pEx/Gal/hRORγ CLBD/HYG pG5luc/blast)
T1 sequence (P51449 267-516): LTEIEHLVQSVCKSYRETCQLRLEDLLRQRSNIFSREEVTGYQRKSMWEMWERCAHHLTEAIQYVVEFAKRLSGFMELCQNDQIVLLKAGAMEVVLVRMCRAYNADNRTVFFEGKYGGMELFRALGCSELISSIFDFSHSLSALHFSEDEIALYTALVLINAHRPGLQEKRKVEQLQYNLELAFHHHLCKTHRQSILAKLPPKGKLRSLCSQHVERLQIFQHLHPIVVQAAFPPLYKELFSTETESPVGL
Assay: RORgT Gal4 Luciferase Reporter Gene Assay
Assay type: cell-based
Conditions: engineered Jurkat cells overexpressing RORgT (LBD or full length) fused with Gal4 Luc reporter; 18 hours incubation

Structure (SMILES)	EC50
O=C(N1CC[C@](c2ccc(OCc3c(F)cccc3C(F)(F)F)cc2)(S(=O)(=O)c2ccc(F)cc2)C1)C1(O)CCS(=O)(=O)CC1 [Example 43, 4-[(3R)-3-(4-{[2-fluoro-6-(trifluoromethyl)phenyl]methoxy}phenyl)-3-(4-fluorobenzenesulfonyl)pyrrolidine-1-carbonyl]-4-hydroxy-1λ^6-thiane-1,1-dione]	14 nM
O=C(O)[C@H]1CC[C@H](C(=O)N2CC[C@](c3ccc(OCc4c(F)cccc4C(F)(F)F)cc3)(S(=O)(=O)c3ccc(F)cc3)C2)CC1 [Example 42, (1r,4r)-4-[(3R)-3-(4-{[2-fluoro-6-(trifluoromethyl)phenyl]methoxy}phenyl)-3-(4-fluorobenzenesulfonyl)pyrrolidine-1-carbonyl]cyclohexane-1-carboxylic acid]	47 nM
O=C(C1CCS(=O)(=O)CC1)N1CCC(c2ccc(OCc3ccc(F)cc3Cl)cc2)(S(=O)(=O)c2ccccc2)C1 (centres unmarked) [Example 31, 4-[3-(benzenesulfonyl)-3-{4-[(2-chloro-4-fluorophenyl)methoxy]phenyl}pyrrolidine-1-carbonyl]-1λ^6-thiane-1,1-dione]	343 nM
NC(=O)N1CCC(C(=O)N2CCC(c3ccc(OCc4c(Cl)cccc4Cl)cc3)(S(=O)(=O)c3ccccc3)C2)CC1 (centres unmarked) [Example 25, 4-[3-(benzenesulfonyl)-3-{4-[(2,6-dichlorophenyl)methoxy]phenyl}pyrrolidine-1-carbonyl]piperidine-1-carboxamide]	267 nM
O=C(C1CCS(=O)(=O)CC1)N1CCC(c2ccc(OCc3c(Cl)cccc3Cl)cc2)(S(=O)(=O)c2ccccc2)C1 (centres unmarked) [Example 23, 4-[3-(benzenesulfonyl)-3-{4-[(2,6-dichlorophenyl)methoxy]phenyl}pyrrolidine-1-carbonyl]-1λ^6-thiane-1,1-dione]	46 nM
O=C(O)[C@H]1CC[C@H](C(=O)N2CC[C@](c3ccc(OCc4c(F)cccc4C(F)(F)F)cc3)(S(=O)(=O)c3ccccc3)C2)CC1 [Example 41, (1r,4r)-4-[(3R)-3-(benzenesulfonyl)-3-(4-{[2-fluoro-6-(trifluoromethyl)phenyl]methoxy}phenyl)pyrrolidine-1-carbonyl]cyclohexane-1-carboxylic acid]	88 nM
O=C(O)[C@H]1CC[C@H](C(=O)N2CC[C@](c3ccc(OCc4c(Cl)cccc4Cl)cc3)(S(=O)(=O)c3ccc(F)cc3)C2)CC1 [Example 35, (1r,4r)-4-[(3R)-3-{4-[(2,6-dichlorophenyl)methoxy]phenyl}-3-(4-fluorobenzenesulfonyl)pyrrolidine-1-carbonyl]cyclohexane-1-carboxylic acid]	58 nM
O=S(=O)(c1ccccc1)C1(c2ccc(OCCC3CC3)cc2)CCCC1 [Example 14, 1-[1-(benzenesulfonyl)cyclopentyl]-4-(2-cyclopropylethoxy)benzene]	423 nM
O=C(C1CCS(=O)(=O)CC1)N1CC[C@](c2ccc(OCc3c(Cl)cccc3Cl)cc2)(S(=O)(=O)c2ccccc2)C1 [Example 33, 4-[(3R)-3-(benzenesulfonyl)-3-{4-[(2,6-dichlorophenyl)methoxy]phenyl}pyrrolidine-1-carbonyl]-1λ^6-thiane-1,1-dione]	32 nM
C[C@H](Oc1ccc([C@]2(S(=O)(=O)c3ccc(F)cc3)CCN(C(=O)C3CCS(=O)(=O)CC3)C2)cc1)c1ccccc1 [Example 37, 4-[(3R)-3-(4-fluorobenzenesulfonyl)-3-{4-[(1S)-1-phenylethoxy]phenyl}pyrrolidine-1-carbonyl]-1λ^6-thiane-1,1-dione]	77 nM
O=S(=O)(c1ccccc1)C1(c2ccc(OCc3ccccc3)cc2)CCCC1 [Example 6, 1-[1-(benzenesulfonyl)cyclopentyl]-4-(benzyloxy)benzene]	130 nM

Continued by falling EC50, values first:

EC50	Structure (SMILES)
810 nM	O=C1NC(=O)C(CC(=O)N2CCC(c3ccc(OCc4ccccc4)cc3)(S(=O)(=O)c3ccc(F)cc3)C2)S1 (centres unmarked) [Example 20, 5-(2-{3-[4-(benzyloxy)phenyl]-3-(4-fluorobenzenesulfonyl)pyrrolidin-1-yl}-2-oxoethyl)-1,3-thiazolidine-2,4-dione]
672 nM	O=C(C1CCS(=O)(=O)C1)N1CCC(c2ccc(OCc3ccccc3)cc2)(S(=O)(=O)c2ccc(F)cc2)C1 (centres unmarked) [Example 19, 3-{3-[4-(benzyloxy)phenyl]-3-(4-fluorobenzenesulfonyl)pyrrolidine-1-carbonyl}-1λ^6-thiolane-1,1-dione]
552 nM	O=C(O)[C@H]1CC[C@H](C(=O)N2CCC(c3ccc(OCc4c(Cl)cccc4Cl)cc3)(S(=O)(=O)c3ccccc3)C2)CC1 (some centres unmarked) [Example 24, (1r,4r)-4-[3-(benzenesulfonyl)-3-{4-[(2,6-dichlorophenyl)methoxy]phenyl}pyrrolidine-1-carbonyl]cyclohexane-1-carboxylic acid]
526 nM	O=C(Cn1ccnn1)N1CCC(c2ccc(OCc3ccccc3)cc2)(S(=O)(=O)c2ccc(F)cc2)C1 (centres unmarked) [Example 17, 1-{3-[4-(benzyloxy)phenyl]-3-(4-fluorobenzenesulfonyl)pyrrolidin-1-yl}-2-(1H-1,2,3-triazol-1-yl)ethan-1-one]
462 nM	O=C(C1CCS(=O)(=O)CC1)N1CCC(c2ccc(OCc3ccccc3)cc2)(S(=O)(=O)c2cccc(C(F)(F)F)c2)C1 (centres unmarked) [Example 21, 4-{3-[4-(benzyloxy)phenyl]-3-[3-(trifluoromethyl)benzenesulfonyl]pyrrolidine-1-carbonyl}-1λ^6-thiane-1,1-dione]
397 nM	O=S(=O)(c1ccccc1)C1(c2ccc(OCc3cccc(F)c3)cc2)CCCC1 [Example 11, 1-[1-(benzenesulfonyl)cyclopentyl]-4-[(3-fluorophenyl)methoxy]benzene]
351 nM	NC(=O)[C@H]1CC[C@H](C(=O)N2CC[C@](c3ccc(OCc4c(Cl)cccc4C(F)(F)F)cc3)(S(=O)(=O)c3ccc(F)cc3)C2)CC1 [Example 45, (1r,4r)-4-[(3R)-3-(4-{[2-chloro-6-(trifluoromethyl)phenyl]methoxy}phenyl)-3-(4-fluorobenzenesulfonyl)pyrrolidine-1-carbonyl]cyclohexane-1-carboxamide]
187 nM	O=C(C1CCS(=O)(=O)CC1)N1CCC(c2ccc(OCc3ccccc3Cl)cc2)(S(=O)(=O)c2ccccc2)C1 (centres unmarked) [Example 28, 4-[3-(benzenesulfonyl)-3-{4-[(2-chlorophenyl)methoxy]phenyl}pyrrolidine-1-carbonyl]-1λ^6-thiane-1,1-dione]
139 nM	O=S(=O)(c1ccc(F)cc1)C1(c2ccc(OCCc3ccccc3)cc2)CCCC1 [Example 4, 1-[1-(4-fluorobenzenesulfonyl)cyclopentyl]-4-(2-phenylethoxy)benzene]
109 nM	O=C(C1CCS(=O)(=O)CC1)N1CCC(c2ccc(OCc3c(F)ccc(F)c3Cl)cc2)(S(=O)(=O)c2ccccc2)C1 (centres unmarked) [Example 27, 4-[3-(benzenesulfonyl)-3-{4-[(2-chloro-3,6-difluorophenyl)methoxy]phenyl}pyrrolidine-1-carbonyl]-1λ^6-thiane-1,1-dione]
87 nM	O=S(=O)(c1ccccc1)C1(c2ccc(OCc3ccc(F)cc3)cc2)CCCC1 [Example 12, 1-[1-(benzenesulfonyl)cyclopentyl]-4-[(4-fluorophenyl)methoxy]benzene]
84 nM	O=C(C1CCS(=O)(=O)CC1)N1CCC(c2ccc(OCc3ccccc3C(F)(F)F)cc2)(S(=O)(=O)c2ccccc2)C1 (centres unmarked) [Example 32, 4-[3-(benzenesulfonyl)-3-(4-{[2-(trifluoromethyl)phenyl]methoxy}phenyl)pyrrolidine-1-carbonyl]-1λ^6-thiane-1,1-dione]
77 nM	O=C(Cc1ccncc1)N1CCC(c2ccc(OCc3c(Cl)cccc3Cl)cc2)(S(=O)(=O)c2ccccc2)C1 (centres unmarked) [Example 26, 1-[3-(benzenesulfonyl)-3-{4-[(2,6-dichlorophenyl)methoxy]phenyl}pyrrolidin-1-yl]-2-(pyridin-4-yl)ethan-1-one]
39 nM	O=C(C1CCS(=O)(=O)CC1)N1CCC(c2ccc(OCc3c(F)cccc3Cl)cc2)(S(=O)(=O)c2ccccc2)C1 (centres unmarked) [Example 29, 4-[3-(benzenesulfonyl)-3-{4-[(2-chloro-6-fluorophenyl)methoxy]phenyl}pyrrolidine-1-carbonyl]-1λ^6-thiane-1,1-dione]
18 nM	O=C(N1CC[C@](c2ccc(OCc3c(F)cccc3C(F)(F)F)cc2)(S(=O)(=O)c2ccccc2)C1)C1(O)CCS(=O)(=O)CC1 [Example 40, 4-[(3R)-3-(benzenesulfonyl)-3-(4-{[2-fluoro-6-(trifluoromethyl)phenyl]methoxy}phenyl)pyrrolidine-1-carbonyl]-4-hydroxy-1λ^6-thiane-1,1-dione]
